Measurements: ChEMBL document CHEMBL3769367, “Orexin Receptor Antagonists: New Therapeutic Agents for the Treatment of Insomnia” (J Med Chem, 2016)

How the values were obtained:
Canis familiaris [1] = experiment: Effect on sleep parameter in po dosed Beagle dog by EEG analysis; format: functional, Canis lupus familiaris
Cytochrome P450 3A4 = Cytochrome P450 3A4 (Homo sapiens, UniProt P08684); experiment: Inhibition of CYP3A4 (unknown origin); format: ADME
[2] = Plasma protein binding in Beagle dog; format: ADME, cell-free, Canis lupus familiaris; settings: read-out: PPB (converted)
[3] = Plasma protein binding in human; format: ADME, cell-free; settings: read-out: PPB (converted)
Rattus norvegicus [4] = organism: Rattus norvegicus; experiment: Receptor occupancy at OX2R in rat brain assessed as drug level in plasma; format: functional
[5] = molecular target: T1, Orexin/Hypocretin receptor type 1 (Homo sapiens, UniProt O43613); experiment: Antagonist activity at human OX1R expressed in CHO cells by FLIPR assay; format: cell-based
T1 sequence (O43613 whole entry): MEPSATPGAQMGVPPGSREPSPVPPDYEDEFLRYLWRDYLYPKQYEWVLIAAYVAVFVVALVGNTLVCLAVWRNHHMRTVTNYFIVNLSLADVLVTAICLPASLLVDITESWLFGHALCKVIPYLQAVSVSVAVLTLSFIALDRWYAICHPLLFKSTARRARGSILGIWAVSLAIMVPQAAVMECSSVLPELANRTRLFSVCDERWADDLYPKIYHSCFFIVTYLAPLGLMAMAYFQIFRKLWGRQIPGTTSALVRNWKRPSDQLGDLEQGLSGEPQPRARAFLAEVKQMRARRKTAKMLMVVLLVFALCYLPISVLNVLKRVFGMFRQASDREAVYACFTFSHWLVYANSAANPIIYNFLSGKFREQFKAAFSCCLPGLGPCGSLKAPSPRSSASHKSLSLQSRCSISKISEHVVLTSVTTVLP

Orexin receptor type 2 = molecular target: T2, Orexin receptor type 2 (Homo sapiens, UniProt O43614); experiment: Antagonist activity at human OX2R expressed in CHO cells by FLIPR assay; format: cell-based
T2 sequence (O43614 whole entry): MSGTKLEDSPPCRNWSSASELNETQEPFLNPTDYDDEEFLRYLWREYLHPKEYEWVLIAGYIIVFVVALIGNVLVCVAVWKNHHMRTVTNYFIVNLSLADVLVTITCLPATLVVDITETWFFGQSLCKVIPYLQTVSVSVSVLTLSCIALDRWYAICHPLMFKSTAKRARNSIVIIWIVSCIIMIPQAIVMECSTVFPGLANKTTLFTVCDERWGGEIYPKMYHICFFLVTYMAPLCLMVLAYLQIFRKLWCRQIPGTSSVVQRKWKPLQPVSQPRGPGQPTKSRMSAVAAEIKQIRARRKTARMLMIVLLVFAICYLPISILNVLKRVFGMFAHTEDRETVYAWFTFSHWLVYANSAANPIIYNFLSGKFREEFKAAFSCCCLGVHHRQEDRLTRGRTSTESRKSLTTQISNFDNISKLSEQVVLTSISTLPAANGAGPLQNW

[6] = Plasma protein binding in Sprague-Dawley rat; format: ADME, cell-free; settings: read-out: PPB (converted)
[7] = Plasma protein binding in rhesus monkey; format: ADME, cell-free, Macaca mulatta; settings: read-out: PPB (converted)
[8] = Clearance in iv dosed Sprague-Dawley rat; format: ADME, organism-based; settings: in vivo
[9] = Half life in iv dosed Sprague-Dawley rat; format: ADME, organism-based; settings: in vivo
[10] = Clearance in iv dosed Beagle dog; format: ADME, organism-based, Canis lupus familiaris; settings: in vivo
[11] = Half life in human plasma at 5 to 250 mg, po; format: ADME, organism-based
[12] = Tmax in human plasma at 5 to 250 mg, po; format: ADME, organism-based
[13] = Lipophilicity, log D of the compound; format: physicochemical; settings: octanol/water
Liver microsome = experiment: GSH activity in human liver microsomes assessed as reduction in GSH adduct formation; format: ADME; parameters: scale not given: the % may be the effect or the level left
[14] = Half life in iv dosed Beagle dog; format: ADME, organism-based, Canis lupus familiaris; settings: in vivo
[15] = Clearance in iv dosed rhesus monkey; format: ADME, organism-based, Macaca mulatta; settings: in vivo
[16] = Half life in iv dosed rhesus monkey; format: ADME, organism-based, Macaca mulatta; settings: in vivo
[17] = Oral bioavailability in Sprague-Dawley rat; format: ADME, organism-based; settings: in vivo
[18] = Oral bioavailability Beagle dog; format: ADME, organism-based, Canis lupus familiaris; settings: in vivo
[19] = Oral bioavailability rhesus monkey; format: ADME, organism-based, Macaca mulatta; settings: in vivo
Rattus norvegicus [20] = experiment: Effect on sleep parameter in po dosed Sprague-Dawley rat by EEG analysis; format: functional
Mus musculus = experiment: Effect on sleep parameter in po dosed C57/BL6 mouse by EEG analysis; format: functional
Rhesus monkey = experiment: Effect on sleep parameter in po dosed rhesus monkey by EEG analysis; format: functional, Macaca mulatta
Rattus norvegicus [21] = experiment: Effect on sleep parameter in po dosed rat by EEG analysis; format: functional
Homo sapiens [22] = experiment: Effect on sleep parameter in insomnia patient assessed as total sleep time at 80 mg, po measured on night 1 by polysomnography; format: functional
Homo sapiens [23] = experiment: Effect on sleep parameter in insomnia patient assessed as wake after sleep onset time at 20 mg, po measured on night 28 by polysomnography; format: functional
[24] = Plasma protein binding in dog; format: ADME, cell-free, Canis lupus familiaris; settings: read-out: PPB (converted)
[25] = Clearance in iv dosed rat; format: ADME, organism-based; settings: in vivo
Canis familiaris [26] = experiment: Effect on sleep parameter in po dosed dog by EEG analysis; format: functional, Canis lupus familiaris
Homo sapiens [27] = experiment: Effect on sleep parameter in insomnia patient assessed as total sleep time at 80 mg, po measured on night 28 by polysomnography; format: functional
[28] = Apparent permeability of the compound; format: physicochemical; settings: not told
[29] = Tmax in human plasma; format: ADME, organism-based
[30] = Terminal half life in human plasma; format: ADME, organism-based; settings: read-out: beta t1/2 (converted)
Homo sapiens [31] = experiment: Effect on sleep parameter in insomnia patient assessed as sleep efficiency at 10 mg, po measured on night 1 by polysomnography; format: functional
Homo sapiens [32] = experiment: Effect on sleep parameter in insomnia patient assessed as latency to persistent sleep time at 10 mg, po measured on night 1 by polysomnography; format: functional
Homo sapiens [33] = experiment: Effect on sleep parameter in insomnia patient assessed as wake after sleep onset time at 10 mg, po measured on night 1 by polysomnography; format: functional
Homo sapiens [34] = experiment: Effect on sleep parameter in insomnia patient assessed as total sleep time at 10 mg, po measured on night 1 by polysomnography; format: functional
Homo sapiens [35] = experiment: Effect on sleep parameter in insomnia patient assessed as sleep efficiency at 20 mg, po measured on night 1 by polysomnography; format: functional
Homo sapiens [36] = experiment: Effect on sleep parameter in insomnia patient assessed as latency to persistent sleep time at 20 mg, po measured on night 1 by polysomnography; format: functional
Homo sapiens [37] = experiment: Effect on sleep parameter in insomnia patient assessed as wake after sleep onset time at 20 mg, po measured on night 1 by polysomnography; format: functional
Homo sapiens [38] = experiment: Effect on sleep parameter in insomnia patient assessed as total sleep time at 20 mg, po measured on night 1 by polysomnography; format: functional
Homo sapiens [39] = experiment: Effect on sleep parameter in insomnia patient assessed as sleep efficiency at 40 mg, po measured on night 1 by polysomnography; format: functional
Homo sapiens [40] = experiment: Effect on sleep parameter in insomnia patient assessed as latency to persistent sleep time at 40 mg, po measured on night 1 by polysomnography; format: functional
Homo sapiens [41] = experiment: Effect on sleep parameter in insomnia patient assessed as wake after sleep onset time at 40 mg, po measured on night 1 by polysomnography; format: functional
Homo sapiens [42] = experiment: Effect on sleep parameter in insomnia patient assessed as total sleep time at 40 mg, po measured on night 1 by polysomnography; format: functional
Homo sapiens [43] = experiment: Effect on sleep parameter in insomnia patient assessed as sleep efficiency at 80 mg, po measured on night 1 by polysomnography; format: functional
Homo sapiens [44] = experiment: Effect on sleep parameter in insomnia patient assessed as latency to persistent sleep time at 80 mg, po measured on night 1 by polysomnography; format: functional
Homo sapiens [45] = experiment: Effect on sleep parameter in insomnia patient assessed as wake after sleep onset time at 80 mg, po measured on night 1 by polysomnography; format: functional
Homo sapiens [46] = experiment: Effect on sleep parameter in insomnia patient assessed as sleep efficiency at 10 mg, po measured on night 28 by polysomnography; format: functional
Homo sapiens [47] = experiment: Effect on sleep parameter in insomnia patient assessed as latency to persistent sleep time at 10 mg, po measured on night 28 by polysomnography; format: functional
Homo sapiens [48] = experiment: Effect on sleep parameter in insomnia patient assessed as wake after sleep onset time at 10 mg, po measured on night 28 by polysomnography; format: functional
Homo sapiens [49] = experiment: Effect on sleep parameter in insomnia patient assessed as total sleep time at 10 mg, po measured on night 28 by polysomnography; format: functional
Homo sapiens [50] = experiment: Effect on sleep parameter in insomnia patient assessed as sleep efficiency at 20 mg, po measured on night 28 by polysomnography; format: functional
Homo sapiens [51] = experiment: Effect on sleep parameter in insomnia patient assessed as latency to persistent sleep time at 20 mg, po measured on night 28 by polysomnography; format: functional
Homo sapiens [52] = experiment: Effect on sleep parameter in insomnia patient assessed as total sleep time at 20 mg, po measured on night 28 by polysomnography; format: functional
Homo sapiens [53] = experiment: Effect on sleep parameter in insomnia patient assessed as sleep efficiency at 40 mg, po measured on night 28 by polysomnography; format: functional
Homo sapiens [54] = experiment: Effect on sleep parameter in insomnia patient assessed as latency to persistent sleep time at 40 mg, po measured on night 28 by polysomnography; format: functional
Homo sapiens [55] = experiment: Effect on sleep parameter in insomnia patient assessed as wake after sleep onset time at 40 mg, po measured on night 28 by polysomnography; format: functional
Homo sapiens [56] = experiment: Effect on sleep parameter in insomnia patient assessed as total sleep time at 40 mg, po measured on night 28 by polysomnography; format: functional
Homo sapiens [57] = experiment: Effect on sleep parameter in insomnia patient assessed as sleep efficiency at 80 mg, po measured on night 28 by polysomnography; format: functional
Homo sapiens [58] = experiment: Effect on sleep parameter in insomnia patient assessed as latency to persistent sleep time at 80 mg, po measured on night 28 by polysomnography; format: functional
Homo sapiens [59] = experiment: Effect on sleep parameter in insomnia patient assessed as wake after sleep onset time at 80 mg, po measured on night 28 by polysomnography; format: functional

Chain of Cytochrome P450 3A4 (P08684 whole entry): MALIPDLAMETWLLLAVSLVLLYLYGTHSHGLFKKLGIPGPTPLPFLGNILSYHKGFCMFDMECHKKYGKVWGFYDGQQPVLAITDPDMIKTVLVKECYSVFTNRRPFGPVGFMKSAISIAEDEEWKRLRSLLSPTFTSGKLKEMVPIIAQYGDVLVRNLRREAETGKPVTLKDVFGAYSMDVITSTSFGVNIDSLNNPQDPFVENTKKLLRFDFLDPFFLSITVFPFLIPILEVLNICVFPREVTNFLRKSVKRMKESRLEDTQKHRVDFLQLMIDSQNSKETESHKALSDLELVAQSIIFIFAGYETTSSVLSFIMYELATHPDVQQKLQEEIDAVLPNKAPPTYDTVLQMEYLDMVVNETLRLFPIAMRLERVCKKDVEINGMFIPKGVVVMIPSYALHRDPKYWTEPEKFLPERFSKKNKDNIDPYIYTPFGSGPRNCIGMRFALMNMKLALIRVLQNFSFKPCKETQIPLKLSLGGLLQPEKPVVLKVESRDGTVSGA

COc1ccc(CNC(=O)c2cc(-c3cncc(Cl)c3)cnc2-c2ccccn2)nc1OC [MK-1064]
Activity (Canis familiaris [1]): 1 mg/kg | IC50 (Cytochrome P450 3A4): 28 µM | fraction unbound [2]: 0.29 | fraction unbound [3]: 0.03 | Occ90 (Rattus norvegicus [4]): 695 nM | IC50 [5]: 1.79 µM | IC50 (Orexin receptor type 2): 0.018 µM | fraction unbound [6]: 0.19 | fraction unbound [7]: 0.06 | clearance [8]: 36 mL/min/kg | half-life [9]: 0.3 h | clearance [10]: 16 mL/min/kg | half-life [11]: 1.6 h | Tmax [12]: 1 h | logD [13]: 1.8 | Activity (Liver microsome): 85% | half-life [14]: 1 h | clearance [15]: 12 mL/min/kg | half-life [16]: 0.8 h | bioavailability [17]: 54% | bioavailability [18]: 48% | bioavailability [19]: 16% | Activity (Rattus norvegicus [20]): 20 mg/kg | Activity (Mus musculus): 100 mg/kg | Activity (Rhesus monkey): 10 mg/kg

Cc1ccc(-n2nccn2)c(C(=O)N2CCN(c3nc4cc(Cl)ccc4o3)CC[C@H]2C)c1 [SUVOREXANT]
Activity (Rattus norvegicus [21]): 10 mg/kg | Time (Homo sapiens [22]): 61.9 min | Time (Homo sapiens [23]): -28.1 min | fraction unbound [24]: 0.01 | Occ90 (Rattus norvegicus [4]): 1070 nM | clearance [25]: 44 mL/min/kg | Activity (Canis familiaris [26]): 3 mg/kg | Time (Homo sapiens [27]): 36.6 min | Papp [28]: 37 ×10⁻⁶ cm/s | Tmax [29]: 1.5 h | half-life [30]: 8 h | Activity (Homo sapiens [31]): 5.2% | Time (Homo sapiens [32]): -3.4 min | Time (Homo sapiens [33]): -21.2 min | Time (Homo sapiens [34]): 25.1 min | Activity (Homo sapiens [35]): 7.6% | Time (Homo sapiens [36]): -9.4 min | Time (Homo sapiens [37]): -24.7 min | Time (Homo sapiens [38]): 36.2 min | Activity (Homo sapiens [39]): 10.8% | Time (Homo sapiens [40]): -23.1 min | Time (Homo sapiens [41]): -33.9 min | Time (Homo sapiens [42]): 52.4 min | Activity (Homo sapiens [43]): 12.9% | Time (Homo sapiens [44]): -25.4 min | Time (Homo sapiens [45]): -36.8 min | Activity (Homo sapiens [46]): 4.7% | Time (Homo sapiens [47]): -2.3 min | Time (Homo sapiens [48]): -21.4 min | Time (Homo sapiens [49]): 22.3 min | Activity (Homo sapiens [50]): 10.4% | Time (Homo sapiens [51]): -22.3 min | Time (Homo sapiens [52]): 49.9 min | Activity (Homo sapiens [53]): 7.8% | Time (Homo sapiens [54]): -3.8 min | Time (Homo sapiens [55]): -33.2 min | Time (Homo sapiens [56]): 36.8 min | Activity (Homo sapiens [57]): 7.6% | Time (Homo sapiens [58]): -9.5 min | Time (Homo sapiens [59]): -28.9 min
